The values that follow come from patent publication US20220175729A1, “PHARMACEUTICAL USE OF CHLOROPHYLLIDE FOR CANCER THERAPY” (I-SHOU UNIVERSITY, priority 2020, published 2022).

A short description of assay [1]: DPPH free radical scavenging assay. The class given is biochemical. As for the experimental part: The DPPH assay was used to evaluate the free radical-scavenging of chlorophyllide. Briefly, DPPH (8 mg) was dissolved in methanol (100 mL) to obtain a stock solution of 80 μg/mL. Then, 2.95 mL of the working solution was mixed with 50 μL of sample. After incubation in a dark at room temperature for 20 min, the absorbance was measured at 517 nm. The DPPH scavenging effect (%) was determined using the following formula: […]
where Ac was the absorbance of the blank control, Ai was the absorbance in the presence of the samples, and Aj was the absorbance of the samples alone. Vitamin B2 was used as a reference standard compound.
(DPPH is a stable violet radical that fades when it is reduced.)

The test system of assay [2] is MCF7 breast cancer cells. As to the kind of experiment: Target gene expression by RT-PCR, MCF7. The class given is cell-based, human. Particulars: MCF7 treated with chlorophyllide. The text has this:
(§1) Then, among the 50 candidate genes, CCR1, STIM2, ETNK1, RAP2B, and TOP2A were used as target genes in real-time polymerase chain reaction (RT-PCR).

Assay [3] has as its system MDA-MB-231 breast cancer cells. As to the kind of experiment: Target gene expression by RT-PCR, MDA-MB-231. As to conditions: MDA-MB-231 treated with chlorophyllide. The class given is cell-based, human.
From the text: as §1

In assay [4] the test system is MCF7 / MDA-MB-231 breast cancer cells. Put plainly: Log2 fold change of target genes (Table 5, cell line and method not stated). The class given is cell-based, human. As for the experimental part:
The gene expression profiles of the MCF7 breast cancer cells treated with chlorophyllide or MDA-MB-231 breast cancer cells treated with chlorophyllide and the corresponding untreated cells were analyzed by using next generation sequencing (NGS).
as §1

In assay [5] the test system is MCF7 breast cancer cells. As to conditions: FIG. 4 comparison, MTT, 0 to 200 μg/mL.

With chlorophyllide, the results for the DPPH scavenging rate in assay [1] (100 μg/mL), in assay [1] (200 μg/mL) and in assay [1] (400 μg/mL) were 31.01%, 26.92% and 26.09%, respectively. The “gene expression level by RT-PCR, CCR1” value in the assay on MCF7 breast cancer cells [2] (gene CCR1) is listed as 6.798; in assay [3] (gene CCR1), 10.079. Besides, the “gene expression level by RT-PCR, ETNK1” value with MCF7 breast cancer cells [2] (gene ETNK1) amounted to 1.987; in assay [3] (gene ETNK1), 5.954. In addition, the “gene expression level by RT-PCR, MAGI1” value in the assay on MCF7 breast cancer cells [2] (gene MAGI1) came out at 3.126; in assay [3] (gene MAGI1) it was 1.3977. Also, the “gene expression level by RT-PCR, NLRC5” value in the assay with MCF7 breast cancer cells [2] (gene NLRC5) turned out to be 0.684; in assay [3] (gene NLRC5) it was 5.527. Further, the figures for the “gene expression level by RT-PCR, PKN1” value (in the assay with MCF7 breast cancer cells [2] (gene PKN1); in assay [3] (gene PKN1)) were 1.167 and 0.5819, respectively. Moreover, the “gene expression level by RT-PCR, RAP2B” value with MCF7 breast cancer cells [2] (gene RAP2B) was 0.5882; in assay [3] (gene RAP2B), 3.694. Further, the figures for the “gene expression level by RT-PCR, SLC7A7” value (in the assay with MCF7 breast cancer cells [2] (gene SLC7A7); in assay [3] (gene SLC7A7)) were 0.3107 and 1.159, respectively. In addition, the “gene expression level by RT-PCR, STIM2” value in the assay with MCF7 breast cancer cells [2] (gene STIM2) is reported as 6.125; in assay [3] (gene STIM2), 3.5088. Besides, the “gene expression level by RT-PCR, TOP2A” value is recorded as 1.574 in the assay with MCF7 breast cancer cells [2] (gene TOP2A) and 11.02 in assay [3] (gene TOP2A). In addition, the “Log2 fold change, CCR1” value in assay [4] (gene CCR1) is on record as 5.954. Besides, the “Log2 fold change, ETNK1” value in assay [4] (gene ETNK1) is given as 2.181. In addition, the “Log2 fold change, RAP2B” value in assay [4] (gene RAP2B) came out at 2.375. Moreover, the “Log2 fold change, STIM2” value in assay [4] (gene STIM2) was 2.783.

A word on the IC50: it is the midpoint of a concentration-inhibition curve. The low end stands for greater potency, the high end for weaker potency. With chlorophyllin, the IC50 in the assay on MCF7 breast cancer cells [5] worked out at 218.34 µg/mL. The results for the DPPH scavenging rate in assay [1] (100 μg/mL), in assay [1] (200 μg/mL) and in assay [1] (400 μg/mL) were 25.68%, 30.58% and 45.34%, respectively.

Turning to `Cc1cc2nc3c(=O)[nH]c(=O)nc-3n(C[C@H](O)[C@H](O)[C@H](O)CO)c2cc1C` [vitamin B2], the DPPH scavenging rate in assay [1] (100 μg/mL) was found to be 28.05%.

Consider chlorophyll, for which the IC50 with MCF7 breast cancer cells [5] is 197.31 µg/mL. Moreover, the DPPH scavenging rate in assay [1] (100 μg/mL) came out at 52.95%; in assay [1] (200 μg/mL), 65.11%; in assay [1] (400 μg/mL), 88.62%. In addition, the “EC50 (concentration that can inhibit 50% of DPPH free radicals)” value in assay [1] (by extrapolation from regression analysis) was 62.14 µg/mL.
